The target of data set [1] is V1A-R (Homo sapiens, UniProt P37288). Briefly: V1A receptor antagonism measured as calcium signal. Type of data set: cell-based. The settings on record: antagonist, n = 3, read-out: V1A-R (Antago) IC50.
In data set [2] the target is T1, oxytocin receptor (Homo sapiens, UniProt P30559).
T1 construct: expressed in transfected cells; host or cells: CHO cell lines
T1 sequence (P30559 1-389): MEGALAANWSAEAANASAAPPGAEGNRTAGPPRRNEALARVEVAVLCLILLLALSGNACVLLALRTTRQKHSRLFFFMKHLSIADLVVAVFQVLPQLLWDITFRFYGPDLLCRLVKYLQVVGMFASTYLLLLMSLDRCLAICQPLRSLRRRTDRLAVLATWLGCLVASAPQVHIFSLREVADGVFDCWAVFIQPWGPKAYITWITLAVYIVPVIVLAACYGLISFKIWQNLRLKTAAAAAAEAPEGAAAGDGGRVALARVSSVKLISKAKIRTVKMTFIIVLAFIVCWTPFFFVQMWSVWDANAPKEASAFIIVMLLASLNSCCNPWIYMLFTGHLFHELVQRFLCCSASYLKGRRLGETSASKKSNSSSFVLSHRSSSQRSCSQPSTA
As to the kind of experiment: IP-One IP1 accumulation assay in CHO cell lines expressing oxytocin receptor (agonism). The class given is cell-based. Particulars: CHO cells expressing oxytocin receptor, n = 3, read-out: OT-R EC50. Here is the method: The activation constants (EC50 in nM) were measured in CHO cell lines expressing oxytocin receptor by IP-One IP1 accumulation assay. These values are the mean±SEM of at least three separate experiments performed in triplicate.

The conditions of data set [3]: cited from earlier work.

V1A-R, sequence (P37288 whole entry, species assumed): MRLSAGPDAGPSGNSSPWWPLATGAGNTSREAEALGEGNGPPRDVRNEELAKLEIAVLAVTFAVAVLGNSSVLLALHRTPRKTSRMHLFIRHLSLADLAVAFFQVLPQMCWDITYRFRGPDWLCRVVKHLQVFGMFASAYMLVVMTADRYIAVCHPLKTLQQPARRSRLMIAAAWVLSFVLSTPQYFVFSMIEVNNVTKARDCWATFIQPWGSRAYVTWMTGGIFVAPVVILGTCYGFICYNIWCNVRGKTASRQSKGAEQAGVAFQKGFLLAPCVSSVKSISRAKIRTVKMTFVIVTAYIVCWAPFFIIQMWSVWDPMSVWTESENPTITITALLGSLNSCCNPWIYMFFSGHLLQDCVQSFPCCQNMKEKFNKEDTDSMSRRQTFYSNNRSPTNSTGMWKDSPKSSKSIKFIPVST

As a reminder, the IC50 is the concentration needed to halve the response being measured. Turning to `Cc1cc(C(=O)N2Cc3cnn(C)c3Nc3ccccc32)ccc1CNC(=O)N1C[C@H](F)C[C@H]1C(=S)N(C)C` [Compound 1], the IC50 in data set [1] amounted to 0.25 µM.
For orientation: EC50 means the concentration needed to bring the measured effect to its halfway point. With `CO[C@@H]1C[C@@H](C(=S)N(C)C)N(C(=O)NCc2ccc(C(=O)N3Cc4cnn(C)c4Nc4ccccc43)cc2C)C1` [Compound 3], the 50% effective concentration (EC50) in data set [2] turned out to be 0.033 µM.
The same measure, in the same setting: next, `Cc1cc(C(=O)N2Cc3cnn(C)c3Nc3ccccc32)ccc1CNC(=O)N1C[C@H](OCCCO)C[C@H]1C(=S)N(C)C` [Compound 6, (2S,4R)-2-(dimethylcarbamothioyl)-4-(3-hydroxypropoxy)-N-[(2-methyl-4-4-methyl-2,4,5,9-tetraazatricyclo[8.4.0.0,3,7]tetradeca-1(14),3(7),5,10,12-pentaene-9-carbonylphenyl)methyl]pyrrolidine-1-carboxamide]: 0.0298 µM.
Consider `Cc1cc(C(=O)N2Cc3cnn(C)c3Nc3ccccc32)ccc1CNC(=O)N1C[C@H](OCCCCO)C[C@H]1C(=S)N(C)C` [Compound 7, (2S,4R)-2-(dimethylcarbamothioyl)-4-(4-hydroxybutoxy)-N-[(2-methyl-4-4-methyl-2,4,5,9-tetraazatricyclo[8.4.0.0,3,7]tetradeca-1(14),3(7),5,10,12-pentaene-9-carbonylphenyl)methyl]pyrrolidine-1-carboxamide], for which, in data set [2], the half-maximal effective concentration (EC50) was found to be 0.0116 µM.
For the molecule `Cc1cc(C(=O)N2Cc3cnn(C)c3Nc3ccccc32)ccc1CNC(=O)N1C[C@H](OCc2cccc(S(N)(=O)=O)c2)C[C@H]1C(=S)N(C)C` [Compound 13, (2S,4R)-2-(dimethylcarbamothioyl)-N-[(2-methyl-4-4-methyl-2,4,5,9-tetraazatricyclo[8.4.0.0,3,7]tetradeca-1(14),3(7),5,10,12-pentaene-9-carbonylphenyl)methyl]-4-[(3-sulfamoylphenyl)methoxy]pyrrolidine-1-carboxamide], the concentration for a half-maximal effect (EC50) in data set [2] was 0.033 µM.
On to `Cc1cc(C(=O)N2Cc3cnn(C)c3Nc3ccccc32)ccc1CNC(=O)N1C[C@H](OCc2nnn[nH]2)C[C@H]1C(=S)N(C)C` [Compound 19, (2S,4R)-2-(dimethylcarbamothioyl)-N-[(2-methyl-4-4-methyl-2,4,5,9-tetraazatricyclo[8.4.0.0,3,7]tetradeca-1(14),3(7),5,10,12-pentaene-9-carbonylphenyl)methyl]-4-[(1H-1,2,3,4-tetrazol-5-yl)methoxy]pyrrolidine-1-carboxamide], for which, in data set [2], the EC50 was 0.0174 µM.
Consider `Cc1cc(C(=O)N2Cc3cnn(C)c3Nc3ccccc32)ccc1CNC(=O)N1CC(OCCC2NC(=O)NC2=O)CC1C(=S)N(C)C` [Compound 21, (2S,4R)-2-(dimethylcarbamothioyl)-4-[2-(2,5-dioxoimidazolidin-4-yl)ethoxy]-N-[(2-methyl-4-4-methyl-2,4,5,9-tetraazatricyclo[8.4.0.0,3,7]tetradeca-1(14),3(7),5,10,12-pentaene-9-carbonylphenyl)methyl]pyrrolidine-1-carboxamide], for which the EC50 in data set [2] amounted to 0.0144 µM.
For the molecule `CC[C@H](C)[C@@H]1NC(=O)[C@H](Cc2ccc(O)cc2)NC(=O)[C@@H](N)CSSC[C@@H](C(=O)N2CCC[C@H]2C(=O)N[C@@H](CC(C)C)C(=O)NCC(N)=O)NC(=O)[C@H](CC(N)=O)NC(=O)[C@H](CCC(N)=O)NC1=O` [OT], the half-life in blood entry in data set [3] is “about 3 minute”.

The values above are taken from patent US20260200927A1, “NON PEPTIDERGIC AGONISTS OF OXYTOCIN RECEPTOR” (UNIVERSITE DE STRASBOURG, priority 2022, published 2026).
